Measurements reported in ChEMBL document CHEMBL3044951, “Synthesis and antimicrobial activity of dimethyl- and trimethyl-substituted phosphonium salts with alkyl chains of various lengths” (1994).
Activity calls are given as the source filed them. No cut-off for these calls is given here.

Tests used:
Debaryomyces hansenii = experiment: Antifungal activity against Candida famata IFO 0380 by spread plate method; assay type: functional
Escherichia coli [1] = experiment: Antibacterial activity against Escherichia coli NIHJ by spread plate method; assay type: functional
Trichoderma harzianum = experiment: Antifungal activity against Trichoderma harzianum by spread plate method; assay type: functional
Bacillus spizizenii = experiment: Bacteriostatic activity against Bacillus subtilis subsp. spizizenii ATCC 6633 by spread plate method; assay type: functional
Pseudomonas aeruginosa = experiment: Antibacterial activity against Pseudomonas aeruginosa ATCC 27853 by spread plate method; assay type: functional
Penicillium citrinum = experiment: Antifungal activity against Penicillium citrinum ATCC 9849 by spread plate method; assay type: functional
Staphylococcus aureus [2] = experiment: Bacteriostatic activity against methicillin-susceptible Staphylococcus aureus 209P by spread plate method; assay type: functional
Escherichia coli [3] = experiment: Antibacterial activity against Escherichia coli IFO 3806 by spread plate method; assay type: functional
Klebsiella aerogenes = experiment: Antibacterial activity against Enterobacter aerogenes by spread plate method; assay type: functional
Staphylococcus aureus [4] = experiment: Bacteriostatic activity against methicillin-susceptible Staphylococcus aureus IFO 12732 by spread plate method; assay type: functional
Escherichia coli [5] = experiment: Bactericidal activity against Escherichia coli IFO 3806 assessed as log10 reduction in viable cell count at 2.8 to 280 uM after 30 to 120 min by agar dilution test; assay type: functional, organism-based
Geotrichum candidum = experiment: Antifungal activity against Galactomyces geotrichum IFO 6454 by spread plate method; assay type: functional
Staphylococcus aureus [6] = experiment: Bactericidal activity against methicillin-susceptible Staphylococcus aureus IFO 12732 assessed as log10 reduction in viable cell count at 2.8 to 280 uM after 30 to 120 min by agar dilution test; assay type: functional, organism-based
Rhizopus stolonifer = experiment: Antifungal activity against Rhizopus stolonifer ATCC 6227 by spread plate method; assay type: functional
Staphylococcus aureus [7] = experiment: Bacteriostatic activity against methicillin-resistant Staphylococcus aureus by spread plate method; assay type: functional
Escherichia coli [8] = experiment: Bactericidal activity against Escherichia coli IFO 3806 assessed as log10 reduction in viable cell count at 2.8 uM up to 120 min by agar dilution test; assay type: functional
Escherichia coli [9] = experiment: Bactericidal activity against Escherichia coli IFO 3806 assessed as log10 reduction in viable cell count at 0.28 to 280 uM up to 30 min by agar dilution test; assay type: functional, organism-based
Staphylococcus aureus [10] = experiment: Bactericidal activity against methicillin-susceptible Staphylococcus aureus IFO 12732 assessed as log10 reduction in viable cell count at 0.28 uM by agar dilution test; assay type: functional, organism-based
Staphylococcus aureus [11] = experiment: Bactericidal activity against methicillin-susceptible Staphylococcus aureus IFO 12732 assessed as log10 reduction in viable cell count at 2.8 uM up to 30 min by agar dilution test; assay type: functional, organism-based
Staphylococcus aureus [12] = experiment: Bactericidal activity against methicillin-susceptible Staphylococcus aureus IFO 12732 assessed as log10 reduction in viable cell count at 0.28 to 280 uM up to 30 min by agar dilution test; assay type: functional, organism-based
Escherichia coli [13] = experiment: Bactericidal activity against Escherichia coli IFO 3806 assessed as log10 reduction in viable cell count at 28 to 280 uM after 30 to 120 min by agar dilution test; assay type: functional, organism-based
Staphylococcus aureus [14] = experiment: Bactericidal activity against methicillin-susceptible Staphylococcus aureus IFO 12732 assessed as log10 reduction in viable cell count at 28 uM up to 60 min by agar dilution test; assay type: functional, organism-based
Staphylococcus aureus [15] = experiment: Bactericidal activity against methicillin-susceptible Staphylococcus aureus IFO 12732 assessed as log10 reduction in viable cell count at 28 uM up to 120 min by agar dilution test; assay type: functional
Staphylococcus aureus [16] = experiment: Bactericidal activity against methicillin-susceptible Staphylococcus aureus IFO 12732 assessed as log10 reduction in viable cell count at 280 uM after 30 to 120 min by agar dilution test; assay type: functional, organism-based
Escherichia coli [17] = experiment: Bactericidal activity against Escherichia coli IFO 3806 assessed as log10 reduction in viable cell count at 280 uM after 30 to 120 min by agar dilution test; assay type: functional, organism-based
Staphylococcus aureus [18] = experiment: Bactericidal activity against methicillin-susceptible Staphylococcus aureus IFO 12732 assessed as log10 reduction in viable cell count at 280 uM up to 30 min by agar dilution test; assay type: functional, organism-based
Staphylococcus aureus [19] = experiment: Bactericidal activity against methicillin-susceptible Staphylococcus aureus IFO 12732 assessed as log10 reduction in viable cell count at 2.8 uM up to 120 min by agar dilution test; assay type: functional

Compound | MIC (Debaryomyces hansenii) [µg/mL] | MIC (Escherichia coli [1]) [µg/mL] | MIC (Trichoderma harzianum) [µg/mL] | MIC (Bacillus spizizenii) [µg/mL] | MIC (Pseudomonas aeruginosa) [µg/mL] | MIC (Penicillium citrinum) [µg/mL] | MIC (Staphylococcus aureus [2]) [µg/mL] | MIC (Escherichia coli [3]) [µg/mL] | MIC (Klebsiella aerogenes) [µg/mL] | MIC (Staphylococcus aureus [4]) [µg/mL] | MIC (Geotrichum candidum) [µg/mL] | MIC (Rhizopus stolonifer) [µg/mL] | MIC (Staphylococcus aureus [7]) [µg/mL] | also measured
CCCCCCCCCC[P+](C)(C)CCCCCCCCCC.[Cl-] [DIDECYLDIMETHYLPHOSPHONIUM CHLORIDE] | 1.56 | 3.13 | 200 | 0.78 | 200 | 100 | 0.78 | 3.13 | 3.13 | 0.78 | 3.13 | > 200 | 0.78 | Activity (Escherichia coli [5]): Active; Activity (Staphylococcus aureus [6]): Active
CCCCCCCCCC[P+](C)(C)Cc1ccc(CC)cc1.[Cl-] [DECYL(4-ETHYLBENZYL)DIMETHYLPHOSPHONIUM CHLORIDE] | 12.5 | 12.5 | > 200 | 1.56 | 200 | 200 | 0.78 | 12.5 | 25 | 0.78 | 6.25 | > 200 | 1.56 | –
CCCCCCCCCCCCCC[P+](C)(C)Cc1ccc(CC)cc1.[Cl-] [(4-ETHYLBENZYL)DIMETHYL(TETRADECYL)PHOSPHONIUM CHLORIDE] | 6.25 | 200 | > 200 | 1.56 | 200 | > 200 | 1.56 | 200 | 200 | 1.56 | 6.25 | > 200 | 1.56 | –
CCCCCCCCCCCCCCCCCC[P+](C)(C)C.[Cl-] [OCTADECYLTRIMETHYLPHOSPHONIUM CHLORIDE] | 12.5 | > 200 | > 200 | 3.13 | > 200 | > 200 | 0.78 | > 200 | > 200 | 0.78 | > 200 | > 200 | 1.56 | Activity (Escherichia coli [8]): >99.9%; Activity (Escherichia coli [9]): Active; Activity (Staphylococcus aureus [10]): inactive; Activity (Staphylococcus aureus [11]): Active
CCCCCCCCCCCCCCCCCC[P+](C)(C)Cc1ccc(CC)cc1.[Cl-] [(4-ETHYLBENZYL)DIMETHYL(OCTADECYL)PHOSPHONIUM CHLORIDE] | > 200 | > 200 | > 200 | 25 | > 200 | > 200 | 12.5 | > 200 | > 200 | 12.5 | > 200 | > 200 | 25 | –
CCCCCCCCCCCCCC[P+](C)(C)C.[Cl-] [TETRADECYLTRIMETHYLPHOSPHONIUM CHLORIDE] | 200 | 12.5 | 200 | 0.2 | 200 | 200 | 0.2 | 12.5 | 100 | 0.2 | 50 | 200 | 1.56 | Activity (Staphylococcus aureus [12]): Active; Activity (Escherichia coli [9]): Active; Activity (Escherichia coli [13]): Active; Activity (Staphylococcus aureus [14]): Active
CCCCCCCCCCCCCCCCCC[N+](C)(C)C | – | – | – | – | – | – | – | – | – | – | – | – | – | Activity (Staphylococcus aureus [14]): Active
CCCCCCCCCCCCCCCCCC[P+](C)(C)CCCCCCCCCCCCCCCCCC.[Cl-] [DIOCTADECYLDIMETHYLPHOSPHONIUM CHLORIDE] | > 200 | > 200 | > 200 | > 200 | > 200 | > 200 | 100 | > 200 | > 200 | 100 | > 200 | > 200 | > 200 | Activity (Staphylococcus aureus [15]): >99.99%; Activity (Escherichia coli [5]): Active
CCCC[P+](CCCC)(CCCC)Cc1ccc(CC)cc1.[Cl-] [TRIBUTYL(4-ETHYLBENZYL)PHOSPHONIUM CHLORIDE] | > 200 | > 200 | > 200 | 100 | > 200 | > 200 | 50 | > 200 | > 200 | 50 | > 200 | > 200 | 50 | –
CCCCCCCCCC[P+](C)(C)C.[Cl-] [DECYLTRIMETHYLPHOSPHONIUM CHLORIDE] | > 200 | 200 | > 200 | 50 | > 200 | > 200 | 3.13 | 200 | > 200 | 3.13 | > 200 | > 200 | 50 | Activity (Staphylococcus aureus [16]): inactive; Activity (Escherichia coli [17]): inactive
CCCCCCCCCC[N+](C)(C)CCCCCCCCCC | – | – | – | – | – | – | – | – | – | – | – | – | – | Activity (Escherichia coli [8]): inactive
CCCCCCCCCCCCCC[P+](C)(C)CCCCCCCCCCCCCC.[Cl-] [DITETRADECYLDIMETHYLPHOSPHONIUM CHLORIDE] | > 200 | > 200 | > 200 | 100 | > 200 | > 200 | 12.5 | > 200 | > 200 | 12.5 | > 200 | > 200 | 200 | Activity (Escherichia coli [5]): Active; Activity (Staphylococcus aureus [18]): Active; Activity (Staphylococcus aureus [14]): Active; Activity (Staphylococcus aureus [19]): >99.999%
CCCCCCCCCCCCCC[N+](C)(C)C.[Cl-] | – | – | – | – | – | – | – | – | – | – | – | – | – | Activity (Staphylococcus aureus [15]): >99.9%; Activity (Staphylococcus aureus [18]): Active; Activity (Escherichia coli [13]): Active
